Columns and labels:
Assay type in all cases: physicochemical
[1] = Reduction potential of model compounds; conditions: pH 7 Buffer solution versus Normal Hydrogen Electrode (NHE)
Method: The redox potential of the solution is measured by open cell potential. […] Cyclic voltammetry can be used to identify the various oxidation states and redox potentials for future manipulation of redox state. Additionally, FIG. 5 in the present application provides a working example of this assay by depicting the cyclic voltammetry trace for hypericin. As shown, there are multiple peaks in the range of 0-2 volts, that are the result of the different redox states of hypericin. This is manipulated according to the preferred or desired redox state to be achieved.
Once the redox potential of the preparation is measured, the redox state may be adjusted to the preferred or desired condition at any stage as previously described.
The multiple oxidation states of the molecule of interest can be determined electrochemically by cyclic voltammetry. The first phase involves applying an excessive positive potential (oxidizing potential) and oxidizing all the species present to one form. Then the applied voltage is stepped down in increments while monitoring current. When the mid-point redox potential of a reaction is approached, molecules begin to be reduced, causing current through the circuit. After returning all molecules to the reduced form, the voltage is increased and the redox potentials of the reaction(s) are recorded. […]

[2] = Electrochemical oxidation of EGCG solutions at pH 6.0, followed by UV-visible absorbance and open circuit potential
From the text: An electrochemical cell was fabricated using a fine porosity glass frit in 1″ diameter glass tubing. The electrochemical cell houses the counter electrode and keeps the Ag/AgCl reference electrode and platinum working electrode separate from the counter electrode. This addition to the system allowed the preparation of bulk solution. The working electrode and reference electrode compartment was continuously stirred using a small stir bar and a magnetic stirrer to minimize gradient effects at the working electrode.
The EGCG solutions were oxidized using a positive potential to a visual end point. UV-visible spectral data were collected during these experiments, including the absorbance at 270 nm and 320 nm, corresponding to the phenol and quinone forms of EGCG, respectively. In addition, the open cell potential was recorded as experiments progressed. The active redox potentials and experimental endpoints were determined based on current and visual color changes.
Due to solution evaporation over time, the ratio of absorbance at 320 nm divided by the absorbance at 270 nm was determined in order to account for overall absorption increases. […] In addition, the visual change in solution color from clear to yellow and pink was also monitored as an indicator of degree of oxidation.
Stirred EGCG solutions in 0.1 M phosphate buffer with 0.1 M KCl at pH 6.0 were monitored. […]

[3] = Stability of electrochemically oxidized EGCG solutions after pH modification (UV-visible spectra)
From the text: Solutions were pH modified following electrochemical oxidation to observe stability. […] These samples were open to air, and no other precautions were taken to prevent oxidation by atmospheric oxygen.

change in absorbance at 270 and 320 nm ([2]; after seven hours, 800 mV solution and control solution)	stability of electrochemically-induced changes (320 nm absorbance over time) ([2]; solutions left with no current after 68 h, until 120 h)	stability of pH-modified sample after electrochemical oxidation ([3]; EGCG solution pH 6.26, 1500 mV for 11.4 hours, then pH 8.43, open to air, after 7 days)	stability of pH-modified samples after electrochemical oxidation ([3]; EGCG solution pH 6.26, 1500 mV for 11.4 hours, then pH modified, open to air, after one day)	oxidation of control samples ([3]; control samples at pH 6.26, no potential)	Compound	Reduction Potential [1] [mV]
–	–	–	–	–	O=C(O)/C=C/c1ccc(O)c(O)c1 [Caffeic Acid]	120
no change	stable for over two days	relatively stable after 7 days	stable after one day	did not oxidize	O=C(O[C@@H]1Cc2c(O)cc(O)cc2O[C@@H]1c1cc(O)c(O)c(O)c1)c1cc(O)c(O)c(O)c1 [Epigallocatechin gallate, epigallocatechin gallate]	–
–	–	–	–	–	O=c1c(O)c(-c2ccc(O)c(O)c2)oc2cc(O)cc(O)c12 [Quercitin]	120

Source: patent US20090023804A1, “ELECTROCHEMICAL METHODS FOR REDOX CONTROL TO PRESERVE, STABILIZE AND ACTIVATE COMPOUNDS” (priority 2006, published 2009)
